# Measured values reported in US20100168112A1, “2-Substituted and 4-substituted aryl nitrone compounds” (RENOVIS, INC., priority 2004, published 2010).
# System: STZ-diabetic rats
# Assay: Diabetic neuropathy, mechanical allodynia (von Frey filaments)
# Assay type: in vivo, rat
# Conditions: 25 mg/kg, p.o., bid, x49 d
# Experimental: Adult male Sprague Dawley (SD) rats weighing 250-300 gm (Charles River Laboratories, San Diego, Calif.) were used. The animal room was lighted artificially at a 12-hr light-dark cycle (from 7:00 A.M. to 7:00 P.M.) with water and food supply ad libitum. Animals were allocated randomly into groups. Forty-nine (49) days prior to the behavioral tests, rats received a bolus injection of STZ (75 mg/kg, i.v.). STZ was dissolved in 0.1 M sodium citrate buffer, pH 4.5 solution, at the concentration of 75 mg/ml. To ensure the development of hyperglycemia, their non-fasted levels of glucose in whole blood, obtained via tail veins, were evaluated, using a glocometer (Accucheck®, Roche Diagnostics, Palo Alto, Calif.), once a week. Animals failing to show hyperglycemic conditions (i.e., whole blood glucose>120 mg/dL) were removed from the study. Diabetic rats were treated orally with Compound 62 (5 mg/kg or 25 mg/kg, both bid) or vehicle (1 ml/kg, bid), starting the date of STZ-injection. Compound 62 was dissolved in vehicle, which is composed of 96% of 0.5% CMC and 4% of 10% Tween 80. As a control, a group of naive rats received oral Compound 62 (25 mg/kg, bid) or vehicle (1 ml/kg, bid) treatment. Each group had >12 rats. […]
smiles,measurement,setting,value
"CC(C)(C)/[N+]([O-])=C/c1ccc(S(C)(=O)=O)cc1 [Compound 62, N-tert-Butyl-C-[4-(methanesulfonyl)phenyl]nitrone]",effect on PWT / reversal of allodynia vs vehicle (in words),,significantly enhanced the PWT
same,"PWT (von Frey), mechanical allodynia",mean ± SEM,6.08 ± 0.94 GRAMS
